Results on 8 molecules are retold here after patent US7402576B2, “Phosphinic acid analogs of glutamate” (Givaudan SA, priority 2002, dated 2008).

In test [1] the target is T1, enzyme of Corynebacterium striatum Ax 20 (SEQ ID No. 1) (Corynebacterium striatum, UniProt Q8GGD4).
T1 construct: endogenous in cells; host or cells: Corynebacterium striatum Ax 20 (DSM 14267), wild-type cell extract
As to the kind of experiment: Enzyme inhibition, cellular extract, Nα-lauroyl-L-glutamine cleavage, fluorescamine readout. Format: biochemical, Corynebacterium striatum Ax 20 (DSM 14267). The conditions noted are these: substrate Nα-lauroyl-L-glutamine 50 μM, 10 min preincubation at 37° C., 15 min incubation, pH 7. The procedure: Cellular Extracts of Corynebacterium striatum Ax 20 (DSM 14267) are prepared by mechanical disruption and subsequent centrifugation.
The extract (50 μl ml corresponding to 0.2 ml initial cell culture) is added to 50 μl of Buffer A (Phosphate Buffer, pH 7). Various concentrations of the compounds of the present invention are added in a volume of 40 μl, and after 10 min preincubation at 37° C., the reaction is and amended with 10 μl of substrate (Nα-lauroyl-L-glutamine, final concentration 50 μM). The samples are incubated for 15 min and then the reaction is stopped by adding 75 μl of Fluorescamine (2.5 mM dissolved in Acetonitrile). The fluorescence resulting from derivatization of the released glutamine with fluorescamine is determined at an excitation wavelength of 381 nm and an emission wavelength of 470 nm.
By comparing the samples containing compounds of the present invention with control samples with enzyme and substrate only, the inhibition (%) is calculated. Alternatively, the same assay is made with a recombinantly formed enzyme produced with a strain containing an expression vector comprising a nucleic acid sequence encoding for the enzyme.

A further test deals with Corynebacterium Ax20. As to the kind of experiment: Inhibition of the enzymatic activity in living cells, release of lauric acid by GC. The test is classed as cell-based, Corynebacterium striatum Ax 20. The conditions noted are these: 0.2 μM compound, stationary phase living cells, substrate Nα-lauroyl-L-glutamine 1 mM, 1 h. The protocol:
The uptake of the compounds in bacterial cells and the inhibition of the enzyme contained therein may be measured using an assay based on stationary-phase living cells. Thus, cells may be incubated along with inhibitory compound or compounds, and the substrate (i.e. the material found in sweat, which when cleaved by the enzyme forms the malodorous acids), and the release of acids may be measured at various inhibitor concentrations. By comparing IC50 values obtained with the living cells with the IC50 values obtained with the isolated enzyme, the ease of penetration of the compounds into the bacterial cells can be assessed.
In order to evaluate enzyme activity in intact cells, stationary phase living cells of Ax20 are harvested and resuspended in Buffer A to an optical density at 600 nm of 0.25. Inhibitory compounds are added at various concentrations, and after a preincubation of 15 min, the substrate (Nα-lauroyl-L-glutamine, 1 mM final concentration) is added. The samples are incubated for 1 h and then extracted with MTBE and HCl and analysed for released lauric acid using capillary GC. By comparing the samples containing compounds of the present invention with control samples with bacteria and substrate only, the inhibition (%) is calculated. By comparing the inhibitory capacity of the compounds on the isolated enzyme with the values obtained using intact cells, the relative uptake of the compounds by the cells can be assessed. From Table 2 it appears, that compounds of the present invention can cross the bacterial cell wall and cytoplasmatic membrane, and thus can have inhibitory activity in living cells.

pIC50: −log10 of the molar value.

T1 sequence (Q8GGD4 2-400): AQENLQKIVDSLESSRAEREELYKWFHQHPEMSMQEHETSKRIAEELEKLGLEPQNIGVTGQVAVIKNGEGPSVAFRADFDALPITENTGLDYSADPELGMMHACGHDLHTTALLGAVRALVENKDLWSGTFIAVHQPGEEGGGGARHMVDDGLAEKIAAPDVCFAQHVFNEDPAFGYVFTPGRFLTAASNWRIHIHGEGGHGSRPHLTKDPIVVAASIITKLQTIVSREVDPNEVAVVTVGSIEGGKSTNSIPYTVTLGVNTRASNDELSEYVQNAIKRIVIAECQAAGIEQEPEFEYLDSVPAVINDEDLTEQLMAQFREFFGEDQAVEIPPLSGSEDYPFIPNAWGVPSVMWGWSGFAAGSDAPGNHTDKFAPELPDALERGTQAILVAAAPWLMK

Regarding “4-Carbamoyl-2-[hydroxy-(3-phenyl-propyl)-phosphinoylmethyl]-butyric acid [Compound 5t]”, the negative-log IC50 (pIC50) – broadly, −log10 of the IC50, conventionally taken in molar units – in test [1] is 6.90.

In the case of `CCCCCCCCCCP(=O)(O)CC(CCC(N)=O)C(=O)O` (stereo not drawn) [Compound 5a, 4-Carbamoyl-2-(decyl-hydroxy-phosphinoylmethyl)-butyric acid], in test [1], the pIC50 is 7.52. Besides, the “% inhibition of release of fatty acids by Corynebacterium Ax20 at a concentration of 0.2 μM” value (shortened to “% inhibition of release of fatty acids”) in the test on Corynebacterium Ax20 came to 60.9%. For “4-Carbamoyl-2-[hydroxy-(4-phenyl-butyl)-phosphinoylmethyl]-butyric acid [Compound 5x]”, in test [1], the pIC50 is 7.40. `CC(CCc1ccccc1)CCP(=O)(O)CC(CCC(N)=O)C(=O)O` (stereo not drawn) [Compound 5c, 4-Carbamoyl-2-[hydroxy-(3-methyl-5-phenyl-pentyl)-phosphinoylmethyl]-butyric acid] showed a pIC50 in test [1] of 7.94. The “% inhibition of release of fatty acids” value with Corynebacterium Ax20 is listed as 70.5%. Taken in the same sequence, the figures for `CC(C)CCCC(C)CCP(=O)(O)CC(CCC(N)=O)C(=O)O` (stereo not drawn) [Compound 5n, 4-Carbamoyl-2-[(3,7-dimethyl-octyl)-hydroxy-phosphinoylmethyl]-butyric acid] were 8.05 and 69.5%. “4-Carbamoyl-2-(hydroxy-naphthalen-2-ylmethyl-phosphinoylmethyl)-butyric acid [Compound 5g]”: the pIC50 in test [1] was 6.86. Still for that read-out and setting: the figure for “4-Carbamoyl-2-[hydroxy-(4-isopropyl-cyclohex-1-enylmethyl)-phosphinoylmethyl]-butyric acid [Compound 5z]” is 7.49. `CCCCCCCCP(=O)(O)CC(CCC(N)=O)C(=O)O` (stereo not drawn) [Compound 5y, 4-Carbamoyl-2-(hydroxy-octyl-phosphinoylmethyl)-butyric acid] gave a pIC50 in test [1] of 7.75. Besides, the “% inhibition of release of fatty acids” value in the test with Corynebacterium Ax20 worked out at 64.9%.
